Laboratory results reported in patent US10577618B2, “Class of glyphosate resistance genes” (Dow AgroSciences LLC, priority 2012, dated 2020).

Tests used:
T1 wheat = experiment: Detailed phenotypic screen of T1 wheat events at different glyphosate dose rates (Tables 41, 42); format: in vivo, Triticum aestivum; conditions: untransformed donor wheat plants
Protocol: Four replicates of 12 T1 seeds per selected event and eight replicates (12 seeds each) of the untransformed donor wheat line Bobwhite MPB26RH were sown in 85 mm pots and grown to the 2-leaf stage under well-watered conditions at 25° C. with supplementary lighting providing a 12 hour photoperiod. The pots were placed in a randomised design to allow environmental effects to be removed during data analysis. At the 2-leaf stage, plant length and number of leaves was recorded for each plant before spraying with glyphosate. The first, second, third and fourth replicate of T1 plants for each selected event and the untransformed donor wheat line were sprayed at a dose rate of 420, 840, 1680 and 3360 g ai/ha, respectively. The fifth, sixth, seventh and eighth replicate of untransformed donor wheat line (total 48 plants) were not sprayed. At 7, 14 and 21 days after spraying, the plants were scored for plant length, number of leaves and phenotypic response to glyphosate using the scoring scale in Table 37. Any morphological abnormalities were also recorded. For scoring, the scorer was “blinded” with regard to plant genotype and spray dose rate to prevent scoring bias. Plants with delayed germination and poor establishment (criteria: plant length <6 cm) at the pre-spray scoring were excluded from subsequent analyses.
This differentiation was maximal at 21 days and was observed across all glyphosate dose rates. Table 41. To assess the tolerance of the transgenic events to glyphosate at each spray dose rate, null T1 plants (i.e. plants not carrying the transgene) were excluded from subsequent analyses. T1 plants with a response score of less than three at 21 days after spraying were considered to have the null genotype. […]

T0 corn plants = experiment: Post-emergence glyphosate tolerance of T0 dgt-28 corn (Table 19); format: in vivo, Zea mays
Protocol: Zea mays dgt-28 transformation events (T0) were allowed to acclimate in the greenhouse and were grown until plants had transitioned from tissue culture to greenhouse growing conditions (i.e., 2-4 new, normal looking leaves had emerged from the whorl). Plants were grown at 27° C. under 16 hour light:8 hour dark conditions in the greenhouse. The plants were then treated with commercial formulations of DURANGO DMA™ (containing the herbicide glyphosate) with the addition of 2% w/v ammonium-sulfate. Herbicide applications were made with a track sprayer at a spray volume of 187 L/ha, 50-cm spray height. T0 plants were sprayed with a range of glyphosate from 280-4480 g ae/ha glyphosate, which is capable of significant injury to untransformed corn lines. A lethal dose is defined as the rate that causes >95% injury to the B104 inbred.
T0 events of dgt-28 linked with TraP4, TraP5, TraP8 and TraP23 were generated by Agrobacterium transformation and were allowed to acclimate under controlled growth chamber conditions until 2-4 new, normal looking leaves had emerged from the whorl. Plants were assigned individual identification numbers and sampled for copy number analyses of both dgt-28 and aad-1. Based on copy number analyses, plants were selected for protein expression analyses. […]

[1] = Replicate 1, 420 g ai/ha, 10 plants at pre-spray scoring
[2] = Replicate 2, 840 g ai/ha, 10 plants at pre-spray scoring
[3] = Replicate 3, 1680 g ai/ha, 11 plants at pre-spray scoring
[4] = Replicate 4, 3360 g ai/ha, 10 plants at pre-spray scoring

## O=C(O)CNCP(=O)(O)O [glyphosate, N-(phosphonomethyl) glycine]
T1 wheat; [1]
  No. surviving plants at 14 days after spraying: 0
  No. surviving plants at 21 days after spraying: 0
T1 wheat; [2]
  No. surviving plants at 14 days after spraying: 3
  No. surviving plants at 21 days after spraying: 0
T1 wheat; [3]
  No. surviving plants at 14 days after spraying: 0
  No. surviving plants at 21 days after spraying: 0
T1 wheat; [4]
  No. surviving plants at 14 days after spraying: 1
  No. surviving plants at 21 days after spraying: 0
T0 corn plants
  non-transformed plants controlled with glyphosate at concentrations as low as: ≥ 280 g ae/ha
